Literature values as cited in patent US4606909A, “Pharmaceutical multiple-units formulation” (priority 1981, dated 1986).

Conditions: ambient temperature

For `CC(=O)S[C@@H]1CC2=CC(=O)CC[C@]2(C)[C@H]2CC[C@@]3(C)[C@@H](CC[C@@]34CCC(=O)O4)[C@H]12` [spironolactone], the “parts by volume of water required to dissolve 1 part by weight of the substance” value (“parts by volume of water required” below) is given as “more than 1000 parts by volume of water”.
In the case of `C[C@]12CC[C@H]3[C@@H](CCC4=CC(=O)CC[C@@]43C)[C@@H]1CC[C@@H]2O` [testosterone], the “parts by volume of water required” value is listed as “more than 1000 parts by volume of water”.
For `CCCCNC(=O)NS(=O)(=O)c1ccc(C)cc1` [tolbutamide], the “parts by volume of water required” value is given as “more than 1000 parts by volume of water”.
